Assay results as given in patent US9658218B2, “Determination of total analyte concentration” (Siemens Healthcare Diagnostics Inc., priority 2012, dated 2017).

How the values were obtained:
[1] = tested on: endogeneous binding proteins; test: ACMIA assay for tacrolimus on spiked whole blood samples with and without SIRO displacing agent (free vs bound tacrolimus); type: in vitro ADME; conditions: for Protein-Bound: +SIRO minus −SIRO; for +SIRO ng/mL (free plus bound tacrolimus): with SIRO displacer
Experimental: Testing is carried out using the DIMENSION® RxL analyzer, available from Siemens Healthcare Diagnostics Inc., Newark Del. The instrument is employed using ACMIA immunoassay technology. The ACMIA assay method is described in U.S. Pat. Nos. 7,186,518, 5,147,529, 5,128,103, 5,158,871, 4,661,408, 5,151,348, 5,302,532, 5,422,284, 5,447,870, and 5,434,051, the disclosures of which are incorporated herein in their entirety. In the embodiment of the ACMIA method used herein and discussed in more detail below, competition between tacrolimus analog on chrome particles and tacrolimus in patient samples for antibody for tacrolimus conjugated to an enzyme (the “conjugate”) is utilized to determine the amount of tacrolimus in patient samples. Conjugate that binds to the tacrolimus analog on chrome particles is removed by magnetic separation. The enzymatic activity from conjugate remaining in the supernatant is measured and is directly proportional to the amount of tacrolimus in the patient sample. In the ACMIA assay format employed, the enzymatic activity observed when testing a sample containing no tacrolimus is indicative of the amount of enzymatic activity that is not bound to active antibody (i.e., cannot bind tacrolimus on chrome particles). The enzymatic activity observed when no chrome particle is present is indicative of the total amount of enzymatic activity in the conjugate. These values can be used to estimate the percent of enzymatic activity bound to active antibody.
Tacrolimus-free whole blood pools are screened by running the above mentioned ACMIA assay to identify whole blood pools that are substantially free from endogenous interfering substances. The screening is carried out by examining the consistency of tacrolimus recoveries of the pools to the individual tacrolimus-free whole blood samples. If the recoveries of the majority of the tacrolimus-free whole blood samples are within the low end sensitivity of the assay when the pool is used as the tacrolimus-free calibrator, the pool is accepted as a matrix free from endogenous interfering substances. The pool is then used to make the tacrolimus calibrators (or standards) by spiking different amounts of pure tacrolimus into the pool. The calibrators (which are substantially free from endogenous interfering substances) are then employed to generated the relationship of [Z]=a[Y]+b during the method calibration, which is achieved by testing the calibrators in the presence and absence of a displacing agent (sirolimus). Both [Z] and [Y] are generated from the calibration. The [Z] values of the calibrators are generated by running the calibrators in the absence of the displacing agent (representing the free drug) and the [Y] values of the calibrators are generated by subtracting the [Z] value from the total drug measured in the presence of the displacing agent (representing the bound drug). Calibrators made from a whole blood pool that is substantially free from endogeneous interfering substances are selected for use in the experiments below.
The whole blood pool substantially free from endogeneous interfering substances identified above is used. Aliquots (100 mL) of the whole blood pool are spiked with various amounts of tacrolimus so that the resulting concentration of tacrolimus in the whole blood samples is 0, 2.8, 6.0, 11.9 and 31.3 ng/mL (samples I-V).
A set of samples I-V is treated as follows: To each sample is added a sirolimus (SIRO) displacing agent for displacing tacrolimus in the sample from endogeneous binding proteins. The formulation for the SIRO displacement solution is set forth in more detail in Table 1.
The samples are incubated at 37° C. for a period of 140 minutes in the presence of displacing agent to displace tacrolimus from endogeneous binding substances. […]

[2] = ACMIA assay for tacrolimus on unknown samples known to contain endogeneous interfering substances; conditions: for Estimated True: [Y]+[Z]; for Free drug: [Z]=0.218[Y]+0.0981
Experimental: Testing is carried out using the DIMENSION® RxL analyzer, available from Siemens Healthcare Diagnostics Inc., Newark Del. The instrument is employed using ACMIA immunoassay technology. The ACMIA assay method is described in U.S. Pat. Nos. 7,186,518, 5,147,529, 5,128,103, 5,158,871, 4,661,408, 5,151,348, 5,302,532, 5,422,284, 5,447,870, and 5,434,051, the disclosures of which are incorporated herein in their entirety. In the embodiment of the ACMIA method used herein and discussed in more detail below, competition between tacrolimus analog on chrome particles and tacrolimus in patient samples for antibody for tacrolimus conjugated to an enzyme (the “conjugate”) is utilized to determine the amount of tacrolimus in patient samples. Conjugate that binds to the tacrolimus analog on chrome particles is removed by magnetic separation. The enzymatic activity from conjugate remaining in the supernatant is measured and is directly proportional to the amount of tacrolimus in the patient sample. In the ACMIA assay format employed, the enzymatic activity observed when testing a sample containing no tacrolimus is indicative of the amount of enzymatic activity that is not bound to active antibody (i.e., cannot bind tacrolimus on chrome particles). The enzymatic activity observed when no chrome particle is present is indicative of the total amount of enzymatic activity in the conjugate. These values can be used to estimate the percent of enzymatic activity bound to active antibody. The ACMIA assay for tacrolimus is as follows: 15 μL of a whole blood samples I-V from above (substantially free from endogeneous interfering substances and spiked with tacrolimus) is mixed with the SIRO displacement solution (Table 1) in a vessel on the DIMENSION® RxL analyzer. The whole blood is sampled from a standard cup by first mixing the blood with the ultrasonic sample probe. The mixing of whole blood sample with the SIRO displacement solution ensures the displacement of the bound tacrolimus molecules from their binding sites when the SIRO molecules are present. As a result, the signal generated from this assay is related to the amount of free tacrolimus analyte plus the amount of displaced tacrolimus analyte (bound analyte) in the sample. Anti-tacrolimus antibody-β-galactosidase conjugate (50 μL) is added next to each of the reaction vessels and the mixture is held for a period of time (10 to 15 minutes) and at a temperature of 43° C. to allow tacrolimus, if present, to react with the antibody reagent. Chrome particles with immobilized tacrolimus-CM0-DA10-Dexal are added (50 μL) to each of the reaction vessels and are allowed to bind un-bound conjugate. […] The tacrolimus-bound conjugate is detected by transferring the supernatant from each of the reaction vessels to a photometric cuvette and measuring the enzymatic rate of the conjugate in the presence of chlorophenol red-β-D-galactopyranoside (CPRG). The rate for each reaction vessel is measured bichromatically at 577 and 700 nm. The above ACMIA assay is then carried out on unknown samples known to contain endogeneous interfering substances. Samples are obtained from various hospitals and are identified as set forth in first column of Table 3 below. The concentration of bound tacrolimus [Y] is determined as described above. The equation [Z]=0.218[Y]+0.0981 with the values for “a” and “b” determined as discussed above for this ACMIA assay is used to determine a concentration of free tacrolimus [Z] in the samples. The estimated true total concentration of tacrolimus [X] in each sample is determined by adding [Y]+[Z].

[3] = tested on: endogeneous binding proteins; test: ACMIA assay for tacrolimus on spiked whole blood samples with and without SIRO displacing agent (free vs bound tacrolimus); type: in vitro ADME; conditions: without SIRO
[4] = ACMIA assay for tacrolimus on unknown samples known to contain endogeneous interfering substances

Protein-Bound ([1]; BV 2.8 ng/mL): 2.1 ng/mL | +SIRO ng/mL (free plus bound tacrolimus) ([1]; BV 2.8 ng/mL): 2.8 ng/mL | Protein-Bound ([1]; BV 6.0 ng/mL): 4.9 ng/mL | +SIRO ng/mL (free plus bound tacrolimus) ([1]; BV 6.0 ng/mL): 6.0 ng/mL | Protein-Bound ([1]; BV 11.9 ng/mL): 9.7 ng/mL | +SIRO ng/mL (free plus bound tacrolimus) ([1]; BV 11.9 ng/mL): 11.9 ng/mL | Protein-Bound ([1]; BV 31.3 ng/mL): 25.6 ng/mL | +SIRO ng/mL (free plus bound tacrolimus) ([1]; BV 31.3 ng/mL): 31.3 ng/mL | Bound drug ([2]; sample 09-238-057): 0.0 ng/mL | ng/mL + displacer ([2]; sample 09-238-057): 32.7 ng/mL | ng/mL − displacer ([2]; sample 09-238-057): 36.1 ng/mL | Estimated True ([2]; sample 09-238-057): 0.0 ng/mL | Free drug ([2]; sample 09-238-057): 0.0 ng/mL | Bound drug ([2]; sample 109): 0.0 ng/mL | ng/mL + displacer ([2]; sample 109): 16.4 ng/mL | ng/mL − displacer ([2]; sample 109): 21.3 ng/mL | Estimated True ([2]; sample 109): 0.0 ng/mL | Free drug ([2]; sample 109): 0.0 ng/mL | Bound drug ([2]; sample 864408): 2.3 ng/mL | ng/mL + displacer ([2]; sample 864408): 27.7 ng/mL | Estimated True ([2]; sample 864408): 2.9 ng/mL | Free drug ([2]; sample 864408): 0.6 ng/mL | Bound drug ([2]; sample Dussel): 2.3 ng/mL | ng/mL + displacer ([2]; sample Dussel): 14.4 ng/mL | Estimated True ([2]; sample Dussel): 2.9 ng/mL | Free drug ([2]; sample Dussel): 0.6 ng/mL | Bound drug ([2]; sample FP15): 7.1 ng/mL | ng/mL + displacer ([2]; sample FP15): 10.9 ng/mL | Estimated True ([2]; sample FP15): 8.7 ng/mL | Free drug ([2]; sample FP15): 1.6 ng/mL | −SIRO ng/mL (free tacrolimus) ([3]; BV 2.8 ng/mL): 0.7 ng/mL | −SIRO ng/mL (free tacrolimus) ([3]; BV 6.0 ng/mL): 1.2 ng/mL | −SIRO ng/mL (free tacrolimus) ([3]; BV 11.9 ng/mL): 2.2 ng/mL | −SIRO ng/mL (free tacrolimus) ([3]; BV 31.3 ng/mL): 5.7 ng/mL | ng/mL − displacer ([4]; sample 864408): 25.4 ng/mL | ng/mL − displacer ([4]; sample Dussel): 12.2 ng/mL | ng/mL − displacer ([4]; sample FP15): 3.8 ng/mL
Compound: C=CC[C@@H]1/C=C(\C)C[C@H](C)C[C@H](OC)[C@H]2O[C@@](O)(C(=O)C(=O)N3CCCC[C@H]3C(=O)O[C@H](/C(C)=C/[C@@H]3CC[C@@H](O)[C@H](OC)C3)[C@H](C)[C@@H](O)CC1=O)[C@H](C)C[C@@H]2OC [tacrolimus]
